# Results published in patent US20040242660A1, “Substituted oxazolidinones for combinational therapy” (priority 2001, published 2004).
# Read-outs that look alike come from different tables or passages of the source.
# How the values were obtained:
# [1] = test system: thrombus formation in an arteriovenous shunt; test: Arteriovenous shunt model (rat), antithrombotic effect; format: in vivo
# Protocol: b.1) Arteriovenous Shunt Model (Rat) Fasting male rats (strain: HSD CPB:WU) weighing 200-250 g were anesthetized with a Rompun/Ketavet solution (12 mg/kg/50 mg/kg). Thrombus formation was induced in an arteriovenous shunt by a method based on that described by Christopher N. Berry et al., Br. J. Pharmacol. (1994), 113, 1209-1214. For this purpose, the left jugular vein and the right carotid artery were exposed. An extracorporeal shunt was formed between the two vessels using a 10 cm-long polyethylene tube (PE 60). This polyethylene tube was secured in the middle by tying in a further 3 cm-long polyethylene tube (PE 160) which contained a roughened nylon thread forming a loop to produce a thrombogenic surface. The extracorporeal circulation was maintained for 15 minutes. The shunt was then removed and the nylon thread with the thrombus was immediately weighed. The blank weight of the nylon thread had been found before the start of the experiment. The test substances were administered either intravenously through the tail vein or orally by gavage to conscious animals before setting up the extracorporeal circulation.
# human factor Xa (FXa) = human factor Xa (FXa) (Homo sapiens, UniProt P00742); test: Measurement of factor Xa inhibition (chromogenic substrate); format: biochemical
# Chain of human factor Xa (FXa) (P00742 235-488 limits assumed): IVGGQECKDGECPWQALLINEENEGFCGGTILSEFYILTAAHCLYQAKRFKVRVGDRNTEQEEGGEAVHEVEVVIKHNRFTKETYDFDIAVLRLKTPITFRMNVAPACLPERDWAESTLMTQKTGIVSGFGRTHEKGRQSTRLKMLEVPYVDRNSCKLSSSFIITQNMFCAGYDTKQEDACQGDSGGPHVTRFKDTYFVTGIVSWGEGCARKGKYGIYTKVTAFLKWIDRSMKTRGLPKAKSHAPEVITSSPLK
# Chain of human factor Xa (FXa) (P00742 41-179 partner limits assumed): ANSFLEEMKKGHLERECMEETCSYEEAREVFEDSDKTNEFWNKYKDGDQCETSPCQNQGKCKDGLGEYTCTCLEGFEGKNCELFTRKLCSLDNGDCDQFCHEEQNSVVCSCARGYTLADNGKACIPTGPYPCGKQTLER
# Protocol: a.1) Measurement of Factor Xa Inhibition
# In this case, factor Xa eliminates p-nitroaniline from the chromogenic substrate.
# The test substances were dissolved in various concentrations in DMSO and incubated with human FXa (0.5 nmol/l dissolved in 50 mmol/l tris buffer [C,C,C-tris(hydroxymethyl)-aminomethane], 150 mmol/l NaCl, 0.1% BSA (bovine serum albumine), pH=8,3) at 25° C. for 10 minutes. Pure DMSO serves as control.
# [2] = test system: thrombus in the carotid artery of rats; test: Rat thrombosis model (FeCl3-induced carotid artery thrombus), combinations; format: in vivo; details: 1 mg/kg of each active ingredient; for Reduction in thrombus weight after oral treatment: 10 rats per group; for Reduction in thrombus weight after oral treatment / Statistical significance of the reduction in thrombus weight (Student's t-test): oral; for Statistical significance of the reduction in thrombus weight (Student's t-test): p<0.05 regarded as significant; for Antithrombotic effect: single dosage or combination
# Protocol: a) In vivo Investigations in a Rat Thrombosis Model The carotid artery of rats (HSD CPB:WU, Harlan Winkelmann) was exposed under anesthesia. A piece of filter paper impregnated with an aqueous 10% strength FeCl3 solution (dissolved in 1N aqueous hydrochloric acid) was cautiously pushed underneath the exposed vessel in accordance with the method described by Kurz et al. […] After 3 minutes, the piece of filter paper was removed. The carotid artery was removed after 15 minutes, and the thrombus was detached and immediately weighed. […] The animals in the control group had been treated with the corresponding solvent. The statistical significance was calculated using Student's t-test. Values with p<0.05 are regarded as a statistically significant effect (Medical Statistics, M J Campbell, […], Second Edition, John Wiley & Sons).
# [3] = intravenous administration, read-out: ED50 [mg/kg] i.v.
# [4] = oral administration, read-out: ED50 [mg/kg] p.o.
smiles,measurement,setting,value
"O=C(NCC1CN(c2ccc(N3CCOCC3=O)c(C(F)(F)F)c2)C(=O)O1)c1ccc(Cl)s1 (stereo not shown) [Example 114, 5-Chloro-N-({2-oxo-3-[4-(3-oxo-4-morpholinyl)-3-(trifluoromethyl)phenyl]-1,3-oxazolidin-5-yl}methyl)-2-thiophenecarboxamide]",ED50,[1]; [3],3 mg/kg
"Nc1cc(N2CC(CNC(=O)c3ccc(Cl)s3)OC2=O)ccc1N1CCOCC1=O (stereo not shown) [Example 123, N-({3-[3-Amino-4-(3-oxo-4-morpholinyl)phenyl]-2-oxo-1,3-oxazolidin-5-yl}-methyl)-5-chloro-2-thiophenecarboxamide]",ED50,[1]; [4],3 mg/kg
"O=C(NC[C@H]1CN(c2ccc(N3CCCC3=O)cc2)C(=O)O1)c1ccc(Cl)s1 [Example 17, 5-Chloro-N-({(5S)-2-oxo-3-[4-(2-oxo-1-pyrrolidinyl)phenyl]-1,3-oxazolidin-5-yl}methyl)-2-thiophenecarboxamide]",ED50,[1]; [3],6 mg/kg
"Cc1cc(N2CC(CNC(=O)c3ccc(Cl)s3)OC2=O)ccc1N1CCOCC1=O (stereo not shown) [Example 115, 5-Chloro-N-({3-[3-methyl-4-(3-oxo-4-morpholinyl)phenyl]-2-oxo-1,3-oxazolidin-5-yl}methyl)-2-thiophenecarboxamide]",ED50,[1]; [3],3 mg/kg
"O=C(NC[C@H]1CN(c2ccc(N3CCOCC3)c(F)c2)C(=O)O1)c1ccc(Cl)s1 [Example 1, 5-chloro-N-{[(5S)-3-(3-fluoro-4-morpholinophenyl)-2-oxo-1,3-oxazolidin-5-yl]methyl}-2-thiophenecarboxamide]",ED50,[1]; [3],10 mg/kg
"O=C(NC[C@H]1CN(c2ccc(N3CCCCC3=O)cc2)C(=O)O1)c1ccc(Cl)s1 [Example 162, 5-Chloro-N-({(5S)-2-oxo-3-[4-(2-oxo-1-piperidinyl)phenyl]-1,3-oxazolidin-5-yl}-methyl)-2-thiophenecarboxamide]",IC50,human factor Xa (FXa); factor Xa inhibition,0.0028 µM
same,ED50,[1]; [3],3 mg/kg
"O=C(NCC1CN(c2ccc(N3CCOCC3=O)c(F)c2)C(=O)O1)c1ccc(Cl)s1 (stereo not shown) [Example 95, 5-Chloro-N-({3-[3-fluoro-4-(3-oxo-4-morpholinyl)phenyl]-2-oxo-1,3-oxazolidin-5-yl}methyl)-2-thiophenecarboxamide]",ED50,[1]; [3],3 mg/kg
"O=C(NC[C@H]1CN(c2ccc(N3CCOCC3=O)cc2)C(=O)O1)c1ccc(Cl)s1 [Example 44, 5-Chloro-N-({(5S)-2-oxo-3-[4-(3-oxo-4-morpholinyl)phenyl]-1,3-oxazolidin-5-yl}methyl)-2-thiophenecarboxamide]",Reduction in thrombus weight after oral treatment,[2],22%
same,Statistical significance of the reduction in thrombus weight (Student's t-test),[2],no effect (p > 0.05)
same,Antithrombotic effect,[2],inactive
same,ED50,[1]; [4],3 mg/kg
"COC(=O)[C@H](c1ccccc1Cl)N1CCc2sccc2C1 [Clopidogrel, clopidogrel, reference compound]",Reduction in thrombus weight after oral treatment,[2],28%
same,Statistical significance of the reduction in thrombus weight (Student's t-test),[2],no effect (p > 0.05)
same,Antithrombotic effect,[2],inactive
"O=C(NCC1CN(c2ccc(S(=O)(=O)N3CCCC3)cc2)C(=O)O1)c1ccc(Cl)s1 (stereo not shown) [Example 167, 5-Chloro-N-({2-oxo-3-[4-(1-pyrrolidinylsulfonyl)phenyl]-1,3-oxazolidin-5-yl}-methyl)-2-thiophenecarboxamide]",IC50,human factor Xa (FXa); factor Xa inhibition,0.5 µM
"O=C(NC[C@H]1CN(c2ccc(N3CCCC3)cc2)C(=O)O1)c1ccc(Cl)s1 [Example 18, 5-Chloro-N-({(5S)-2-oxo-3-[4-(1-pyrrolidinyl)phenyl]-1,3-oxazolidin-5-yl}methyl)-2-thiophenecarboxamide]",IC50,human factor Xa (FXa); factor Xa inhibition,0.04 µM
O=C(NC[C@H]1CN(c2ccc(N3CCCC3=O)cc2)C(=O)O1)c1ccc(Br)s1 [Example 56],IC50,human factor Xa (FXa); table of Examples 48-58,0.004 µM
"CN(C)S(=O)(=O)c1ccc(N2C[C@H](CNC(=O)c3ccc(Cl)s3)OC2=O)cc1 [Example 40, 5-Chloro-N-[((5S)-3-{4-[(dimethylamino)sulfonyl]phenyl}-2-oxo-1,3-oxazolidin-5-yl)methyl]-2-thiophenecarboxamide]",IC50,human factor Xa (FXa); factor Xa inhibition,0.09 µM
"O=C(NC[C@H]1CN(c2ccc(N3CCS(=O)(=O)CC3)c(F)c2)C(=O)O1)c1ccc(Cl)s1 [Example 15, 5-chloro-N-({(5S)-3-[4-(1,1-dioxo-1[lambda]^6,4-thiazinan-4-yl)-3-fluorophenyl]-2-oxo-1,3-oxazolidin-5-yl}methyl)-2-thiophenecarboxamide]",IC50,human factor Xa (FXa); factor Xa inhibition,0.21 µM
N#Cc1cc(N2C[C@H](CNC(=O)c3ccc(Cl)s3)OC2=O)ccc1N1CCCC1 [Example 54],IC50,human factor Xa (FXa); table of Examples 48-58,0.13 µM
"O=C(NC[C@H]1CN(c2ccc(N3CCOCC3)c(Cl)c2)C(=O)O1)c1ccc(Cl)s1 [Example 37, 5-Chloro-N-{[(5S)-3-(3-chloro-4-morpholinophenyl)-2-oxo-1,3-oxazolidin-5-yl]methyl}-2-thiophenecarboxamide]",IC50,human factor Xa (FXa); factor Xa inhibition,0.033 µM
"CC(=O)N(c1ccc(N2CC(CNC(=O)c3ccc(Cl)s3)OC2=O)cc1)C1CC1 (stereo not shown) [Example 98, N-[(3-{4-[Acetyl(cyclopropyl)amino]phenyl}-2-oxo-1,3-oxazolidin-5-yl)methyl]-5-chloro-2-thiophenecarboxanmide]",IC50,human factor Xa (FXa); factor Xa inhibition,0.05 µM
"NC(=O)NCc1ccc(N2CC(CNC(=O)c3ccc(Cl)s3)OC2=O)cc1 (stereo not shown) [Example 154, N-{[3-(4-{[(Aminocarbonyl)amino]methyl}phenyl)-2-oxo-1,3-oxazolidin-5-yl]-methyl}-5-chloro-2-thiophenecarboxamide]",IC50,human factor Xa (FXa); factor Xa inhibition,1.3 µM
"O=C(Nc1ccc(N2CC(CNC(=O)c3ccc(Cl)s3)OC2=O)cc1)c1cccs1 (stereo not shown) [Example 156, 5-Chloro-N-[(2-oxo-3-{4-[(2-thienylcarbonyl)amino]phenyl}-1,3-oxazolidin-5-yl)methyl]-2-thiophenecarboxamide]",IC50,human factor Xa (FXa); factor Xa inhibition,1.3 µM
"O=C(NCC1CN(c2ccc(N3CCCC3=O)cc2)C(=O)O1)c1ccc(Br)s1 (stereo not shown) [Example 43, 5-Bromo-N-({2-oxo-3-[4-(2-oxo-1-pyrrolidinyl)phenyl]-1,3-oxazolidin-5-yl}methyl)-2-thiophenecarboxamide]",IC50,human factor Xa (FXa); factor Xa inhibition,0.014 µM
O=C(NC[C@H]1CN(c2ccc(N3CCOCC3=O)c(F)c2)C(=O)O1)c1ccc(Br)s1 [Example 127],IC50,human factor Xa (FXa),0.0007 µM
"O=C(NC[C@H]1CN(c2ccc(N3CC[S+]([O-])CC3)c(F)c2)C(=O)O1)c1ccc(Cl)s1 [Example 14, 5-Chloro-N-({(5S)-3-[3-fluoro-4-(1-oxo-1[lambda]^4,4-thiazinan-4-yl)phenyl]-2-oxo-1,3-oxazolidin-5-yl}methyl)-2-thiophenecarboxamide]",IC50,human factor Xa (FXa); factor Xa inhibition,1.1 µM
